Experimental data from patent publication US20240425529A1, “BORIC ACID DERIVATIVE” (SHOUYAO HOLDINGS (BEIJING) CO., LTD., priority 2021, published 2024).

Assays:
LMP7 [1] = target: T1, LMP7 (Homo sapiens, UniProt P28062); experiment: Enzymatic inhibitory activity on LMP7 (MOLT-4 cell lysate, Ac-ANW-AMC substrate); type: biochemical; conditions: 1 hour pre-incubation
T1 construct: using MOLT-4 cell lysate as the enzyme source of LMP7; endogenous in cells; host or cells: MOLT-4 (human acute lymphoblastic leukemia cells)
How it was run: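 Enzyme source was MOLT-4 cell lysate (20 ng/μl final) in 20 mM Tris pH 8.0, 0.5 mM EDTA, preincubated 1 h at 23 °C with compound at 9 final concentrations (0–2000 nM). Ac-ANW-AMC ([…]) was then added, 2 h at 23 °C in the dark. AMC fluorescence (ex 345/em 445 nm) gave the IC50.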

[2] = Animal pharmacokinetic study in rats, single gavage; type: in vivo; conditions: rat, po; male rats, single gavage 5 mg/kg, plasma
Description: Three healthy adult male rats from Beijing Vital River Experimental animal Technology Co. Ltd were used for animal pharmacokinetic experiments. The compounds were suspended in 20% sulfobutyl ether-β-cyclodextrin (W/W/V) at a concentration of 1 mg/mL at a dosing volume of 5 mL/kg by single gavage at a dose of 5 mg/kg. Animals were fasted overnight before the experiment, from 10 hours before the administration to 4 hours after the administration. Blood was collected at 0.25, 0.5, 1, 2, 4, 6, 8, and 24 hours after the administration. The animals were anesthetized with isoflurane. About 0.4 mL of whole blood was collected from the orbital venous plexus using a glass blood collection tube and placed in a heparin anticoagulant tube. The sample was centrifuged at 4200 rpm for 5 min at 4° C. The plasma was transferred to a centrifuge tube and stored at −80° C. for later analysis. The plasma sample analysis used the acetonitrile protein precipitation method to extract the compound to be tested and internal standard (Warfarin or Propranolol) from rat plasma, and the extraction solution was analyzed by LC/MS/MS. The plasma concentration-time data of individual animals measured were analyzed using anon-compartmental model using the WinNonlin (version 5.2.1; Pharsight company) software, and the following pharmacokinetic parameters were obtained: maximum (peak) plasma drug concentration Cmax; Time to max Tmax; the area under the curve AUC0-inf of blood drug concentration-time from half-life T½ and extrapolation to infinite time.

LMP7 [3] = target: T1, LMP7; experiment: Cytological inhibitory activity on LMP7 in MOLT-4 cells; type: cell-based; conditions: incubation for 2 hours with compound, read-out: Cytological activity data LMP7 Activity (MOLT-4Cell)
How it was run: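 MOLT-4 cells pre-incubated 2 h with compound (8 concentrations, 5-fold dilution series from 2 mM DMSO stock, 5% FBS), washed and lysed. Lysate (20 ng/μl, 2× stock) reacted with Ac-ANW-AMC (100 μM, 2× stock) in 20 mM Tris pH 8.0, 0.5 mM EDTA, 1 h, 23 °C. Fluorescence at 345/445 nm; IC50 fitted.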

β5 = target: T2, β5 (Homo sapiens, UniProt P28074); experiment: Enzymatic inhibitory activity on β5 (HEK-293 cell lysate, Ac-WLA-AMC substrate); type: biochemical; conditions: 1 hour pre-incubation
T2 construct: using HEK-293 cell lysate as the enzyme source of D5; endogenous in cells; host or cells: HEK-293 (human embryonic kidney cells)
How it was run: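 HEK-293 lysate (25 ng/μl final) preincubated 1 h at 23 °C with compound (9-point, 5-fold dilutions) in 20 mM Tris pH 8.0, 0.5 mM EDTA. Ac-WLA-AMC then added at 20 μM final for 2 h at 23 °C in the dark. AMC fluorescence read at Ex 345/Em 445 nm; IC50 from curve fit.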

| Structure (SMILES) | IC50 (LMP7 [1]) [nM] | AUC(0-inf) [2] [ng·h/mL] | Cmax [2] [ng/mL] | Tmax [2] [h] | half-life [2] [h] | IC50 (LMP7 [3]) [nM] | IC50 (β5) [nM] |
| --- | --- | --- | --- | --- | --- | --- | --- |
| CC1(C)CC(C)(C)OB([C@H](Cc2coc3ccccc23)NC(=O)C(=O)Nc2cnccn2)O1 [Ex. 72] | 1.46 | – | – | – | – | 0.98 | 21.8 |
| O=C(Nc1cnccn1)C(=O)N[C@@H](Cc1coc2ccccc12)B1OC(=O)c2ccccc2O1 [Ex. 20, N-((1R)-2-(1-benzofuran-3-yl)-1-(4-oxo-2,4-dihydro-1,3,2-benzo[d][1,3,2]dioxaborinin-2-yl)ethyl)-N-(pyrazin-2-yl)oxalamide] | 1.2 | – | – | – | – | 0.32 | 18.8 |
| O=C(N[C@@H](Cc1coc2ccccc12)B(O)O)C(=O)N1CC2COCC2C1 (stereo partly drawn) [Ex. 29, (R)-(2-(benzofuran-3-yl)-1-(2-oxo-2-(tetrahydro-1H-furo[3,4-c]pyrrol-5(3H)-yl)acetamido)ethyl)boronic acid] | 7.81 | – | – | – | – | 15.9 | 41.4 |
| CC1(C)[C@@H]2C[C@H]3OB([C@H](Cc4coc5ccccc45)NC(=O)C(=O)Nc4ccccc4F)O[C@@]3(C)[C@H]1C2 [Ex. 52, (R)-(2-(benzofuran-3-yl)-1-(2-oxo-2-(2-fluorophenylamino)acetamido)ethyl) boronic acid (1S,2S,3R,5S)-(+)-pinane-2,3-diol ester] | 1.61 | – | – | – | – | 4.94 | 32.4 |
| O=C(N[C@@H](Cc1coc2ccccc12)B(O)O)C(=O)N1C2CCC1COC2 [Ex. 39, (R)-(2-(benzofuran-3-yl)-1-(2-oxo-2-(3-oxa-8-azabicyclo[3.2.1]octan-8-yl)acetamido)ethyl)boronic acid] | 5.95 | – | – | – | – | 3.51 | 392 |

Other lines, results leading:

| IC50 (LMP7 [1]) [nM] | AUC(0-inf) [2] [ng·h/mL] | Cmax [2] [ng/mL] | Tmax [2] [h] | half-life [2] [h] | IC50 (LMP7 [3]) [nM] | IC50 (β5) [nM] | Structure (SMILES) |
| --- | --- | --- | --- | --- | --- | --- | --- |
| 15.6 | 20900 | 3800 | 1.17 | 4.2 | – | – | O=C(N[C@@H](Cc1coc2ccccc12)B(O)O)C(=O)N1CCOCC1 [Ex. 5, (R)-(2-(benzofuran-3-yl)-1-(2-morpholino-2-oxoacetamido)ethyl)boronic acid] |
| – | 108000 | 7710 | 0.42 | 14.4 | – | – | O=C(Nc1nccs1)C(=O)N[C@@H](Cc1coc2ccccc12)B(O)O [Ex. 25, (R)-(2-(benzofuran-3-yl)-1-(2-oxo-2-(thiazol-2-ylamino)acetamido)ethyl) boronic acid] |
| 2.31 | – | – | – | – | 1.79 | 25.4 | O=C(Nc1cccnc1Cl)C(=O)N[C@@H](Cc1coc2ccccc12)B(O)O [Ex. 64, (R)-(2-(benzofuran-3-yl)-1-(2-oxo-2-((2-chloropyridin-3-yl)amino)acetamido)ethyl)boronic acid] |
| 3.82 | – | – | – | – | 3.84 | 22.6 | O=C(Nc1cccc2c1OCC2)C(=O)N[C@@H](Cc1coc2ccccc12)B(O)O [Ex. 28, (R)-(2-(benzofuran-3-yl)-1-(2-oxo-2-((2,3-dihydrobenzofuran-7-yl)amino)acetamido)ethyl)boronic acid] |
| 5.32 | – | – | – | – | 22.7 | 97.7 | COc1ncccc1NC(=O)C(=O)N[C@@H](Cc1coc2ccccc12)B(O)O [Ex. 45, (R)-(2-(benzofuran-3-yl)-1-(2-oxo-2-((2-methoxypyridin-3-yl)amino)acetamido)ethyl)boronic acid] |
| 2.86 | – | – | – | – | 3.45 | 29 | O=C(Nc1cccnc1)C(=O)N[C@@H](Cc1coc2ccccc12)B(O)O [Ex. 21, (R)-(2-(benzofuran-3-yl)-1-(2-(pyridin-3-yl)amino-2-oxoacetamido)ethyl) boronic acid] |
